Columns and labels:
[1] = Recrystallization of benzocaine from the formulation after cooling to room temperature; assay type: physicochemical
Experimental: The formulation is prepared by first mixing the topical anesthetic, solubilizer, homopolymers and copolymers together and heating the mixture at about 80° C. while stirring. The perfume oil, skin conditioning oils and water or a thickening agent, depending on the type of composition desired, can be added after dissolution of all of the above components being heated has occurred.
This overall recrystallization problem is easily remedied by reheating the mixture either in a hot water bath or briefly in a microwave oven (<10 seconds). […] This is an improvement over the known art.
The following components were dissolved by stirring while heating in a water bath at 80° C. All of the following protocols are actual experiments developed for the production of the formulation.
After the above components were dissolved, the following components were added to the resulting solution while still heating.
The solution was then cooled to room temperature.

[2] = test system: scalp or skin; assay: Desensitization of the scalp or skin, pain relief in hair treatment and manipulation procedures; assay type: in vivo; settings: benzocaine concentration approximately 20 to 30 weight percent of the formulation

CCOC(=O)c1ccc(N)cc1 [benzocaine, ethyl-p-aminobenzoate]
recrystallization ([1]; about 20 weight percent benzocaine, after 24 hours): very small amount of recrystallization may be observed | benzocaine staying in solution ([1]; about 20 weight percent benzocaine, formulation cooled to room temperature): stays in solution | re-solubility of the reheated mixture ([1]; about 22 to about 30 weight percent benzocaine, reheated in hot water bath or microwave oven (<10 seconds)): Total re-solubility is achieved | precipitation in the mixture ([1]; about 22 to about 30 weight percent benzocaine, several hours after cooling to room temperature): some precipitation is observed | relief of pain associated with hair treatment and manipulation procedures [2]: effective at relieving the pain

Source: patent US20080113032A1, “Scalp Desensitizing Formulation” (BMM PowerMoves, LLC, priority 2001, published 2008)
